Reference: ChEMBL document CHEMBL1201862, “PubChem BioAssay data set” (2004)
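The compound was tested at five concentrations on cells cultured in 96-well plates, with a 48-hour exposure period. GI50 is the concentration that inhibits growth by half.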 Calls of active or inactive are those of the source. No stated cut-off is given here; in the data, active = GI50 up to about 1.1 µM and inactive = higher.

Columns and labels:
Experiment in all cases: NCI anticancer screen, dose series, 48 h
HOP-62 = test system: HOP-62
OVCAR-5 = test system: OVCAR-5
UACC-62 = test system: UACC-62
UO-31 = test system: UO-31
RXF 393 = test system: RXF 393
ACHN = test system: ACHN
OVCAR-3 = test system: OVCAR-3
EKVX = test system: EKVX
NCI/ADR-RES = test system: NCI/ADR-RES
MDA-MB-231 = test system: MDA-MB-231
MDA-MB-435 = test system: MDA-MB-435
SK-MEL-2 = test system: SK-MEL-2
NCI-H522 = test system: NCI-H522
SK-MEL-28 = test system: SK-MEL-28
Malme-3M = test system: Malme-3M
HT-29 = test system: HT-29
HCC 2998 = test system: HCC 2998
SNB-19 = test system: SNB-19
SNB-75 = test system: SNB-75
SR = test system: SR

Structure (SMILES)	GI50 (HOP-62)	GI50 (OVCAR-5)	GI50 (UACC-62)	GI50 (UO-31)	GI50 (RXF 393)	GI50 (ACHN)	GI50 (OVCAR-3)	GI50 (EKVX)	GI50 (NCI/ADR-RES)	GI50 (MDA-MB-231)	GI50 (MDA-MB-435)	GI50 (SK-MEL-2)	GI50 (NCI-H522)	GI50 (SK-MEL-28)	GI50 (Malme-3M)	GI50 (HT-29)	GI50 (HCC 2998)	GI50 (SNB-19)	GI50 (SNB-75)	GI50 (SR)
COc1ccc(CCN2CCN(CCc3ccc(OC)cc3)CC2)cc1	> 100 µM (inactive)	> 100 µM (inactive)	> 100 µM (inactive)	> 100 µM (inactive)	26.2 µM (inactive)	> 100 µM (inactive)	> 100 µM (inactive)	> 100 µM (inactive)	> 100 µM (inactive)	> 100 µM (inactive)	> 100 µM (inactive)	> 100 µM (inactive)	> 100 µM (inactive)	> 100 µM (inactive)	> 100 µM (inactive)	> 100 µM (inactive)	> 100 µM (inactive)	> 100 µM (inactive)	–	–
COc1cccc(C2c3cc4c(cc3OC(N3CCCCC3)C2C)OCO4)c1OC (configuration not stated)	17.9 µM (inactive)	17.7 µM (inactive)	12.9 µM (inactive)	7.05 µM (inactive)	4.08 µM (inactive)	3.19 µM (inactive)	4.15 µM (inactive)	13.7 µM (inactive)	–	14.3 µM (inactive)	11.3 µM (inactive)	5.96 µM (inactive)	5.21 µM (inactive)	16.3 µM (inactive)	11.9 µM (inactive)	4.58 µM (inactive)	15.3 µM (inactive)	14.8 µM (inactive)	5.52 µM (inactive)	1.24 µM (inactive)
CCCCNC(=O)C1=C(C)NC(C)=C(C(=O)NCCCC)C1	> 100 µM (inactive)	> 100 µM (inactive)	> 100 µM (inactive)	> 100 µM (inactive)	> 100 µM (inactive)	> 100 µM (inactive)	> 100 µM (inactive)	58.7 µM (inactive)	> 100 µM (inactive)	> 100 µM (inactive)	> 100 µM (inactive)	> 100 µM (inactive)	–	> 100 µM (inactive)	–	> 100 µM (inactive)	> 100 µM (inactive)	> 100 µM (inactive)	49.8 µM (inactive)	–
CCOC(=O)Nc1sc2c(c1C#N)CCCC2	> 100 µM (inactive)	> 100 µM (inactive)	67.1 µM (inactive)	27.7 µM (inactive)	> 100 µM (inactive)	> 100 µM (inactive)	> 100 µM (inactive)	25.9 µM (inactive)	–	71.3 µM (inactive)	48.2 µM (inactive)	> 100 µM (inactive)	64 µM (inactive)	> 100 µM (inactive)	> 100 µM (inactive)	> 100 µM (inactive)	> 100 µM (inactive)	89.5 µM (inactive)	–	75 µM (inactive)
COC(=O)Nc1nc2cc(C(=O)c3cccs3)ccc2[nH]1 [NOCODAZOLE]	0.0287 µM (active)	20.7 µM (inactive)	0.0184 µM (active)	0.0579 µM (active)	0.0134 µM (active)	0.225 µM (active)	–	0.0397 µM (active)	–	0.171 µM (active)	0.0111 µM (active)	< 0.0193 µM (active)	–	0.0957 µM (active)	0.0272 µM (active)	0.0142 µM (active)	–	0.0857 µM (active)	–	–
O=C1C=CC(=O)c2ccc(=O)ccc21	25.9 µM (inactive)	19.9 µM (inactive)	13.7 µM (inactive)	15 µM (inactive)	6.31 µM (inactive)	9.68 µM (inactive)	7.85 µM (inactive)	22.4 µM (inactive)	–	20.5 µM (inactive)	21.5 µM (inactive)	18.1 µM (inactive)	2.09 µM (inactive)	21.4 µM (inactive)	18.1 µM (inactive)	18.4 µM (inactive)	17.2 µM (inactive)	16.9 µM (inactive)	19.9 µM (inactive)	2.02 µM (inactive)
C=C1C(=O)C23CC1CCC2C12CO[C@H](O)[C@H]1C(C)(C)[C@H](OC(C)=O)C[C@H]2OC3=O (some centres not stated)	–	18.8 µM (inactive)	15 µM (inactive)	22.9 µM (inactive)	–	15.9 µM (inactive)	22.5 µM (inactive)	15.1 µM (inactive)	28.1 µM (inactive)	19.8 µM (inactive)	21.5 µM (inactive)	15.3 µM (inactive)	1.26 µM (inactive)	17.1 µM (inactive)	13.3 µM (inactive)	13.4 µM (inactive)	22.6 µM (inactive)	> 100 µM (inactive)	46.2 µM (inactive)	–
COc1cc(CCCOC(=O)/C=C/c2ccc(O)c(O)c2)cc(O)c1O	> 100 µM (inactive)	> 100 µM (inactive)	27.9 µM (inactive)	37.5 µM (inactive)	73.6 µM (inactive)	> 100 µM (inactive)	42.1 µM (inactive)	> 100 µM (inactive)	–	28.8 µM (inactive)	28.6 µM (inactive)	83.2 µM (inactive)	15 µM (inactive)	58.3 µM (inactive)	74 µM (inactive)	31.6 µM (inactive)	> 100 µM (inactive)	> 100 µM (inactive)	35.2 µM (inactive)	43.6 µM (inactive)
O=c1cc(-c2ccccc2)oc2cc(Oc3nnnn3-c3ccccc3)ccc12	93.8 µM (inactive)	–	> 100 µM (inactive)	19 µM (inactive)	–	4.18 µM (inactive)	55.6 µM (inactive)	35.8 µM (inactive)	–	42.6 µM (inactive)	15.5 µM (inactive)	28.4 µM (inactive)	36.1 µM (inactive)	79.1 µM (inactive)	33.4 µM (inactive)	57.7 µM (inactive)	> 100 µM (inactive)	55.8 µM (inactive)	–	44.9 µM (inactive)
Cc1cc2[nH]c3c(C#N)c(-c4ccccc4)c(/N=N/c4ccc(F)cc4)c(=O)n3c2cc1C	> 100 µM (inactive)	> 100 µM (inactive)	–	> 100 µM (inactive)	> 100 µM (inactive)	> 100 µM (inactive)	3.21 µM (inactive)	> 100 µM (inactive)	> 100 µM (inactive)	> 100 µM (inactive)	> 100 µM (inactive)	> 100 µM (inactive)	18.5 µM (inactive)	> 100 µM (inactive)	–	–	> 100 µM (inactive)	> 100 µM (inactive)	36.2 µM (inactive)	–
CCCCCCCCCCCCOCC(COP(=O)(O)OCCN=[N+]=[N-])OC(=O)CCCCCCCCCCC (configuration not stated)	> 100 µM (inactive)	> 100 µM (inactive)	> 100 µM (inactive)	> 100 µM (inactive)	> 100 µM (inactive)	> 100 µM (inactive)	> 100 µM (inactive)	–	> 100 µM (inactive)	> 100 µM (inactive)	> 100 µM (inactive)	> 100 µM (inactive)	> 100 µM (inactive)	> 100 µM (inactive)	> 100 µM (inactive)	> 100 µM (inactive)	> 100 µM (inactive)	> 100 µM (inactive)	–	–
COC(=O)C1=COC(C)C2C[n+]3ccc4c([nH]c5ccccc54)c3CC12 (configuration not stated)	> 100 µM (inactive)	> 100 µM (inactive)	> 100 µM (inactive)	> 100 µM (inactive)	–	> 100 µM (inactive)	> 100 µM (inactive)	> 100 µM (inactive)	> 100 µM (inactive)	> 100 µM (inactive)	> 100 µM (inactive)	> 100 µM (inactive)	54.5 µM (inactive)	> 100 µM (inactive)	–	> 100 µM (inactive)	> 100 µM (inactive)	> 100 µM (inactive)	> 100 µM (inactive)	–
